Assay results as given in article PMC2909451 (European journal of pharmaceutical sciences : official …, 2010).
Counter-ions that a name gives are not always drawn. Like-named read-outs stand apart in the source and are kept apart here.

Key:
[1] = molecular target: T1, excitatory amino acid transporters (SLC1A6, EAAT4) (Rattus norvegicus, UniProt O35921); experiment: EAAT4 cis-inhibition of glutamate uptake in stably transfected HEK 293 cells; format: cell-based; conditions: for potency estimated from few doses: HEK293, read-out: Ki estimated from one concentration
T1 sequence (O35921 1-561): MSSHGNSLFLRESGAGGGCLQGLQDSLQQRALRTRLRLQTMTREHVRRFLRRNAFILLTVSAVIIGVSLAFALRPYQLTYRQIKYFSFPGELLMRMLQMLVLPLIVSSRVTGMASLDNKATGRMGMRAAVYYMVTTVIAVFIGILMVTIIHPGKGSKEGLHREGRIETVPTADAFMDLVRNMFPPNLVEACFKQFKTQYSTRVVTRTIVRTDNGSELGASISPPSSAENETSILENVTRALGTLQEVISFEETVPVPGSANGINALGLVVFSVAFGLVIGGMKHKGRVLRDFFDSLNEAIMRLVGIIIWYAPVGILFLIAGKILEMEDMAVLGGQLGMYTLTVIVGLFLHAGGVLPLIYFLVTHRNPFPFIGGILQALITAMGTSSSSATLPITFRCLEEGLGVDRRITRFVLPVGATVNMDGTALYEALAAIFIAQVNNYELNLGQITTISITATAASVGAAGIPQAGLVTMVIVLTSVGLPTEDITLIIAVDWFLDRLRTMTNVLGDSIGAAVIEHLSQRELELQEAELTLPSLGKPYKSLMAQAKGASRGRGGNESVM

[2] = molecular target: T2, human organic cation/carnitine transporter (SLC22A5, OCTN2) (Homo sapiens, UniProt O76082); experiment: OCTN2 cis-inhibition of L-carnitine uptake in OCTN2-MDCK cells; format: cell-based; conditions: for potency estimated from few doses: read-out: Ki estimated from one concentration
T2 sequence (O76082 1-557): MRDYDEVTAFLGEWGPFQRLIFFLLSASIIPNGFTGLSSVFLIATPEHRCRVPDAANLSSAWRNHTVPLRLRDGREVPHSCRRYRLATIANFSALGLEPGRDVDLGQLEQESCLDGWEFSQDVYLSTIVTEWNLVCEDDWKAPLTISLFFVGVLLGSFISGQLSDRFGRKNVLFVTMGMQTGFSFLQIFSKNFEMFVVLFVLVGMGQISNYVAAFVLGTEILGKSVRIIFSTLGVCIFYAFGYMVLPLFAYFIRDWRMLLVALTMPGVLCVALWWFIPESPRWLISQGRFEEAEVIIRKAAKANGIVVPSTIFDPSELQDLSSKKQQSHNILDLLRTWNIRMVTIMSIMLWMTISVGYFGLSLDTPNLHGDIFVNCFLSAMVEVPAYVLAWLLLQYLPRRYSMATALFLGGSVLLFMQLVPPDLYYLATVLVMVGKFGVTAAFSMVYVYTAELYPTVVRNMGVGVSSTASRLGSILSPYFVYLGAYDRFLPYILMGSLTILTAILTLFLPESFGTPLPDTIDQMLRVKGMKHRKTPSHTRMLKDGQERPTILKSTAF

OCTN2 = molecular target: T3, OCTN2 (Homo sapiens, UniProt O76082); experiment: L-carnitine uptake study; format: cell-based; conditions: substrate uptake studies
T3 sequence (O76082 1-557): T2 sequence (O76082 1-557)

[3] = molecular target: T4, human apical sodium-dependent transporter (SLC10A2, ASBT) (Homo sapiens, UniProt Q12908); experiment: ASBT cis-inhibition of taurocholate uptake in ASBT-MDCK cells; conditions: for potency estimated from few doses: read-out: Ki estimated from one concentration
T4 sequence (Q12908 1-348): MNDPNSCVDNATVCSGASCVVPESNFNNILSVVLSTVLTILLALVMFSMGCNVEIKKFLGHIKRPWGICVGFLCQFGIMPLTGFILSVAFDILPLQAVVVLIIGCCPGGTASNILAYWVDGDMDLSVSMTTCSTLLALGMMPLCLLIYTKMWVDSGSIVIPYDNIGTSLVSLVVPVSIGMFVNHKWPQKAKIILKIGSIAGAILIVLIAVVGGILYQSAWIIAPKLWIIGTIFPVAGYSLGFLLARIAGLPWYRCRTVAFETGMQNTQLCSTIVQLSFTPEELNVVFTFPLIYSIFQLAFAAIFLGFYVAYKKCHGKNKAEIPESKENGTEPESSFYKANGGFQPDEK

[4] = molecular target: T4, human apical sodium-dependent transporter (SLC10A2, ASBT)
EAAT4 = EAAT4 (Rattus norvegicus, UniProt O35921); conditions: substrate uptake studies
[5] = Precipitation / solubility of inhibitor in transport buffer; format: physicochemical; conditions: for precipitation / solubility in donor solution: ASBT inhibition study, 1-[…] DMSO for low water soluble compounds; for highest concentration at which no precipitation was observed: transport buffer of the ASBT inhibition study, precipitation observed above it
ASBT = ASBT (Homo sapiens, UniProt Q12908); conditions: substrate uptake studies
[6] = Ki, inhibitor concentration range 0-5 μM
[7] = Ki, inhibitor concentration range 0-10 μM
[8] = Ki, inhibitor concentration range 0-20 μM
[9] = Ki, inhibitor concentration range 0-50 μM
[10] = Ki, inhibitor concentration range 0-100 μM
[11] = Ki, inhibitor concentration range 0-200 μM
[12] = Reference Ki, from the comprehensive inhibition profile
[13] = Ki, inhibitor concentration range 0-[…]
[14] = Ki, inhibitor concentration range 0-500 μM
[15] = Ki, inhibitor concentration range 0-50 μM, mean±S.E.
[16] = Ki, inhibitor concentration range 0-200 μM, mean±S.E.
[17] = Ki, inhibitor concentration range 0-500 μM, mean±S.E.
[18] = read-out: percent taurocholate inhibited at the highest inhibitor concentration
[19] = Ki, inhibitor concentration range 0-1000 μM, mean±S.E.

N[C@H](CC(=O)O)C(=O)O [D-Aspartic acid]
potency estimated from few doses [1]: 8.4 ± 0.81 µM
Ki [1, 6]: 9.06 ± 1.51 µM
Ki [1, 7]: 8.72 ± 0.76 µM
Ki [1, 8]: 8.58 ± 0.59 µM
Ki [1, 9]: 8.95 ± 0.57 µM
Ki [1, 10]: 9.21 ± 0.57 µM
Ki [1, 11]: 9.54 ± 0.75 µM
Ki [1, 12]: 9.54 µM

C[N+](C)(C)C[C@@H](O)CC(=O)[O-] [D-carnitine]
Ki ([2]; Ki, inhibitor concentration range 0-1 μM): 8.9 ± 4 µM
Ki [2, 6]: 10.2 ± 1.1 µM
Ki [2, 7]: 11.5 ± 0.9 µM
Ki [2, 8]: 11.8 ± 0.7 µM
Ki [2, 9]: 12 ± 0.6 µM
Ki [2, 10]: 12.1 ± 0.5 µM
Ki [2, 11]: 12.2 ± 0.5 µM
Ki [2, 13]: 9 ± 1.5 µM
Ki [2, 12]: 12.2 µM
potency estimated from few doses [2]: 12.2 ± 0.5 µM

COc1cccc2c1C(=O)c1c(O)c3c(c(O)c1C2=O)C[C@@](O)(C(C)=O)C[C@@H]3O[C@H]1C[C@H](N)[C@H](O)[C@H](C)O1 [Daunorubicin hydrochloride, daunorubicin hydrochloride]
Ki [2, 10]: 424 ± 122 µM
Ki [2, 11]: 375 ± 63 µM
Ki [2, 14]: 443 ± 56 µM
Ki ([2]; Ki, inhibitor concentration range 0-1000 μM): 484 ± 48 µM
Ki ([2]; Ki, inhibitor concentration range 0-1500 μM): 496 ± 41 µM
Ki [2, 12]: 496 µM
potency estimated from few doses [2]: 488 ± 47 µM

N[C@@H](CC(=O)O)C(=O)O [L-Aspartic acid]
potency estimated from few doses [1]: 3.03 ± 0.3 µM
Ki [1, 6]: 1.72 ± 0.14 µM
Ki [1, 7]: 1.77 ± 0.12 µM
Ki [1, 8]: 1.83 ± 0.14 µM
Ki [1, 9]: 1.88 ± 0.18 µM
Ki [1, 10]: 1.92 ± 0.23 µM
Ki [1, 13]: 2.01 ± 0.13 µM
Ki [1, 12]: 1.92 µM

C[N+](C)(C)C[C@H](O)CC(=O)[O-] [L-carnitine]
Kt (Michaelis-Menten constant for transporter mediated transport) (OCTN2): 5.33 µM

CC(C)c1nc(N(C)S(C)(=O)=O)nc(-c2ccc(F)cc2)c1/C=C/[C@@H](O)C[C@@H](O)CC(=O)O [Rosuvastatin]
Ki ([3]; Ki, inhibitor concentration range 0-10 μM, mean±S.E.): 46.7 ± 14.4 µM
Ki [3, 15]: 148 ± 33 µM
Ki ([3]; Ki, inhibitor concentration range 0-100 μM, mean±S.E.): 118 ± 15 µM
Ki [3, 16]: 115 ± 10 µM
Ki [3, 17]: 117 ± 8 µM
Ki ([3]; Ki, inhibitor concentrations 0, 5 μM (Table 2), mean±S.E.): 196 ± 423 µM
Ki ([3]; Ki, inhibitor concentrations 0, 25 μM (Table 2), mean±S.E.): 147 ± 67 µM
Ki [3, 12]: 117 µM
potency estimated from few doses [3]: 123 ± 11 µM
inhibition at 5 µM [3, 18]: 1.54%
inhibition at 10 µM [3, 18]: 11.7%
inhibition at 25 µM [3, 18]: 8.9%
inhibition at 200 µM [3, 18]: 53.3%
inhibition ([4]; 50 µM): 19.4%
inhibition ([4]; 100 µM): 37.8%
inhibition ([4]; 500 µM): 71%

CN1CCN(CC/C=C2/c3ccccc3Sc3ccc(S(=O)(=O)N(C)C)cc32)CC1 [Thiothixene, thiothixene]
Ki [3, 16]: 1030 ± 344 µM
Ki [3, 17]: 913 ± 115 µM
Ki [3, 19]: 1110 ± 136 µM
Ki ([3]; Ki, inhibitor concentration range 0-5000 μM, mean±S.E.): 917 ± 111 µM
Ki [3, 12]: 917 µM
potency estimated from few doses [3]: 905 ± 105 µM
inhibition at 200 µM [3, 18]: 34.6%
inhibition at 1000 µM [3, 18]: 11%
inhibition at 5000 µM [3, 18]: 83.3%
inhibition ([4]; 500 µM): 25.7%

Clc1ccc(C(Cn2ccnc2)OCc2ccsc2Cl)c(Cl)c1 (centres unmarked) [Tioconazole, tioconazole]
Ki ([3]; Ki, inhibitor concentration range 0-25 μM, mean±S.E.): 32.3 ± 6.3 µM
Ki [3, 15]: 32.7 ± 4.7 µM
Ki [3, 16]: 33.7 ± 3.1 µM
Ki [3, 17]: 33.6 ± 2.8 µM
Ki [3, 19]: 34.1 ± 2.7 µM
Ki [3, 12]: 34.1 µM
Ki ([3]; inhibitor concentration range 0-100 μM, mean±S.E.): 32.8 ± 3.6 µM
potency estimated from few doses [3]: 33 ± 6.2 µM
inhibition at 25 µM [3, 18]: 32.2%
inhibition at 200 µM [3, 18]: 74%
inhibition at 1000 µM [3, 18]: 87.2%
inhibition ([4]; 50 µM): 47.7%
inhibition ([4]; 100 µM): 63.7%
inhibition ([4]; 500 µM): 87.1%

CC[C@]1(O)C[C@H]2CN(CCc3c([nH]c4ccccc34)[C@@](C(=O)OC)(c3cc4c(cc3OC)N(C=O)[C@H]3[C@@](O)(C(=O)OC)[C@H](OC(C)=O)[C@]5(CC)C=CCN6CC[C@]43[C@@H]65)C2)C1 [Vincristine sulfate]
Ki [2, 7]: 14.9 ± 2 µM
Ki [2, 8]: 14.5 ± 1.2 µM
Ki [2, 9]: 14.6 ± 1.5 µM
Ki [2, 10]: 15.7 ± 1.6 µM
Ki [2, 11]: 15.9 ± 1.5 µM
Ki [2, 14]: 15.9 ± 1.4 µM
Ki [2, 12]: 15.9 µM
potency estimated from few doses [2]: 14.7 ± 3.1 µM

N[C@@H](CCC(=O)O)C(=O)O [glumatate, glutamate]
Kt (Michaelis-Menten constant for transporter mediated transport) (EAAT4): 2.02 µM

CCOC(=O)C1=C(C)NC(C)=C(C(=O)OC)C1c1cccc([N+](=O)[O-])c1 (centres unmarked) [nitrendipine]
Ki [3, 15]: 43.9 µM
precipitation / solubility in donor solution [5]: incomplete solubility at higher drug concentrations
highest concentration at which no precipitation was observed [5]: 50 µM
inhibition ([4]; 50 µM): 39.7%

C[C@H](CCC(=O)NCCS(=O)(=O)O)[C@H]1CC[C@H]2[C@@H]3[C@H](O)C[C@@H]4C[C@H](O)CC[C@]4(C)[C@H]3C[C@H](O)[C@]12C [taurocholate]
Kt (Michaelis-Menten constant for transporter mediated transport) (ASBT): 5.03 µM

Cc1cccc(Nc2ccncc2S(=O)(=O)NC(=O)NC(C)C)c1 [torsemide]
Ki [3, 19]: 460 µM
inhibition at 1000 µM [3, 18]: 58.4%
precipitation / solubility in donor solution [5]: incomplete solubility at higher drug concentrations
highest concentration at which no precipitation was observed [5]: 1000 µM
